Laboratory results taken from US10376499B2, “Combination therapy for treatment of resistant bacterial infections” (priority 2014, dated 2019).
In brackets after ≈: the same amount, converted by molar mass.

Tested on: A. baumannii
Assay: MIC by broth microdilution (CLSI), panel of 60 A. baumannii clinical isolates (Example 1)

## C[C@H]1COc2c(N3CCN(C)CC3)c(F)cc3c(=O)c(C(=O)O)cn1c23 [LEVO, levofloxacin]
Acinetobacter baumannii
  MIC50: 8 µg/mL (≈ 22.1 µM)
  MIC90: 32 µg/mL (≈ 88.6 µM)
Acinetobacter baumannii, strain ARC593, OXA-98
  MIC: 0.25 µg/mL (≈ 0.692 µM)
Acinetobacter baumannii, strain ARC2461, OXA-66, TEM-1
  MIC: 16 µg/mL (≈ 44.3 µM)
Acinetobacter baumannii, strain ARC2462, TEM-1, OXA-66
  MIC: 16 µg/mL (≈ 44.3 µM)
Acinetobacter baumannii, strain ARC2598, OXA*, TEM-1, OXA-113
  MIC: 4 µg/mL (≈ 11.1 µM)
Acinetobacter baumannii, strain ARC2635, OXA-65, OXA-40, TEM-1
  MIC: 16 µg/mL (≈ 44.3 µM)
Acinetobacter baumannii, strain ARC2636, OXA-65, OXA-40, TEM-1
  MIC: 16 µg/mL (≈ 44.3 µM)
Acinetobacter baumannii, strain ARC2674, SHV-5, OXA-113
  MIC: 16 µg/mL (≈ 44.3 µM)
Acinetobacter baumannii, strain ARC2675, SHV-5, OXA-113
  MIC: 32 µg/mL (≈ 88.6 µM)
Acinetobacter baumannii, strain ARC2681, OXA-40, TEM-1, OXA-132
  MIC: 16 µg/mL (≈ 44.3 µM)
Acinetobacter baumannii, strain ARC2682, SHV-5, OXA-113
  MIC: 16 µg/mL (≈ 44.3 µM)
Acinetobacter baumannii, strain ARC2777, OXA-172, TEM-1
  MIC: 32 µg/mL (≈ 88.6 µM)
Acinetobacter baumannii, strain ARC2778, OXA-40, TEM-1, OXA-65
  MIC: 32 µg/mL (≈ 88.6 µM)
Acinetobacter baumannii, strain ARC2780 (A. baumannii/calcoaceticus complex), OXA*, OXA-2, IMP-1
  MIC: 4 µg/mL (≈ 11.1 µM)
Acinetobacter baumannii, strain ARC2782, OXA-66, OXA-23, TEM-1, PER-1
  MIC: 4 µg/mL (≈ 11.1 µM)
Acinetobacter baumannii, strain ARC2788, OXA-65, TEM-1
  MIC: 32 µg/mL (≈ 88.6 µM)
Acinetobacter baumannii, strain ARC3484, TEM-1, OXA-23, OXA-64
  MIC: 8 µg/mL (≈ 22.1 µM)
Acinetobacter baumannii, strain ARC3485, OXA-82
  MIC: 16 µg/mL (≈ 44.3 µM)
Acinetobacter baumannii, strain ARC3486, OXA-72, OXA-66, TEM-1
  MIC: 8 µg/mL (≈ 22.1 µM)
Acinetobacter baumannii, strain ARC3487, OXA-20, OXA-58, OXA-66
  MIC: 8 µg/mL (≈ 22.1 µM)
Acinetobacter baumannii, strain ARC3488, OXA*, OXA-68
  MIC: 32 µg/mL (≈ 88.6 µM)
Acinetobacter baumannii, strain ARC3489, OXA*, OXA-68
  MIC: 16 µg/mL (≈ 44.3 µM)
Acinetobacter baumannii, strain ARC3490, TEM-1+, PSE-2, OXA-69
  MIC: 16 µg/mL (≈ 44.3 µM)
Acinetobacter baumannii, strain ARC3491 (A. baumannii/calcoaceticus complex), OXA-215
  MIC: 1 µg/mL (≈ 2.77 µM)
Acinetobacter baumannii, strain ARC3492, OXA-40, OXA-132, TEM-1
  MIC: 8 µg/mL (≈ 22.1 µM)
Acinetobacter baumannii, strain ARC3493, OXA-40, OXA-66
  MIC: 4 µg/mL (≈ 11.1 µM)
Acinetobacter baumannii, strain ARC3494, OXA-65
  MIC: 0.25 µg/mL (≈ 0.692 µM)
Acinetobacter baumannii, strain ARC3495, OXA-40, OXA-109
  MIC: 4 µg/mL (≈ 11.1 µM)
Acinetobacter baumannii, strain ARC3513, TEM-1, OXA-23, OXA-65
  MIC: 16 µg/mL (≈ 44.3 µM)
Acinetobacter baumannii, strain ARC3515, OXA-64, OXA-58
  MIC: 8 µg/mL (≈ 22.1 µM)
Acinetobacter baumannii, strain ARC3657, OXA-130
  MIC: 16 µg/mL (≈ 44.3 µM)
Acinetobacter baumannii, strain ARC3658, OXA-66, PER-1, TEM-1, OXA-23
  MIC: 8 µg/mL (≈ 22.1 µM)
Acinetobacter baumannii, strain ARC3659, OXA-23, OXA*
  MIC: 8 µg/mL (≈ 22.1 µM)
Acinetobacter baumannii, strain ARC3882, OXA-23, NDM-1, OXA-10*
  MIC: 4 µg/mL (≈ 11.1 µM)
Acinetobacter baumannii, strain ARC5073, OXA-23, TEM-1, OXA-64, PER-1
  MIC: 8 µg/mL (≈ 22.1 µM)
Acinetobacter baumannii, strain ARC5074, GES*, TEM-1, OXA-51
  MIC: 4 µg/mL (≈ 11.1 µM)
Acinetobacter baumannii, strain ARC5075, SHV-5, OXA-113
  MIC: 32 µg/mL (≈ 88.6 µM)
Acinetobacter baumannii, strain ARC5076, TEM-1, OXA-23, OXA-66
  MIC: 8 µg/mL (≈ 22.1 µM)
Acinetobacter baumannii, strain ARC5077, OXA*, OXA-72
  MIC: 16 µg/mL (≈ 44.3 µM)
Acinetobacter baumannii, strain ARC5079, OXA-72, OXA-65
  MIC: 16 µg/mL (≈ 44.3 µM)
Acinetobacter baumannii, strain ARC5080, OXA-71, OXA-40
  MIC: 16 µg/mL (≈ 44.3 µM)
Acinetobacter baumannii, strain ARC5081, OXA-94, OXA-23
  MIC: 8 µg/mL (≈ 22.1 µM)
Acinetobacter baumannii, strain ARC5082, OXA-66, OXA-23
  MIC: 8 µg/mL (≈ 22.1 µM)
Acinetobacter baumannii, strain ARC5083, OXA-66, OXA-23
  MIC: > 32 µg/mL
Acinetobacter baumannii, strain ARC5084, IMP-4(B), OXA-58, OXA-65
  MIC: 4 µg/mL (≈ 11.1 µM)
Acinetobacter baumannii, strain ARC5085, OXA*, TEM-1
  MIC: 32 µg/mL (≈ 88.6 µM)
Acinetobacter baumannii, strain ARC5086, OXA*, TEM-1, OXA-72, OXA-66
  MIC: 16 µg/mL (≈ 44.3 µM)
Acinetobacter baumannii, strain ARC5087, OXA-66, OXA-23
  MIC: > 32 µg/mL
Acinetobacter baumannii, strain ARC5088, OXA-20, OXA-58, OXA-66
  MIC: 8 µg/mL (≈ 22.1 µM)
Acinetobacter baumannii, strain ARC5089, PER*, TEM-1, OXA-23, OXA-66
  MIC: 16 µg/mL (≈ 44.3 µM)
Acinetobacter baumannii, strain ARC5091, OXA-82, OXA-23
  MIC: > 32 µg/mL
Acinetobacter baumannii, strain ARC5092, OXA-23, OXA-64
  MIC: 8 µg/mL (≈ 22.1 µM)
Strain ARC2058, OXA-95
  MIC: 0.125 µg/mL (≈ 0.346 µM)
Strain ARC2779 (A. baumannii/calcoaceticus complex), OXA-2, VIM-2
  MIC: 0.125 µg/mL (≈ 0.346 µM)
